Where a name gives a salt, the structure may show the parent alone.

T1 sequence (P35408 whole entry): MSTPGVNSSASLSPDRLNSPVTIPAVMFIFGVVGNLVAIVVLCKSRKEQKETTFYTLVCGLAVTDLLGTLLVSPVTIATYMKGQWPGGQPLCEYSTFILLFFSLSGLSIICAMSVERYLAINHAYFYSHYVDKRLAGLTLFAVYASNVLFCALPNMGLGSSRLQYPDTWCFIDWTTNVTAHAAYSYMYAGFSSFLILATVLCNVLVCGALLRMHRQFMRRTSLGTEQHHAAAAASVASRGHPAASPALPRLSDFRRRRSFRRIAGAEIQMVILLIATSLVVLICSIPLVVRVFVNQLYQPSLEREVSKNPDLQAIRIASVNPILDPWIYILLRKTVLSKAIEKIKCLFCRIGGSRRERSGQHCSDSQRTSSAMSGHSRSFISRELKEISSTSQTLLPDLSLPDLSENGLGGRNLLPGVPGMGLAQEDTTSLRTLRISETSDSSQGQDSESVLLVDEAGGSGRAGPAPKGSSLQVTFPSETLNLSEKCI

The assay concerns the target T1, human EP4 (hEP4) receptor (Homo sapiens, UniProt P35408).
T1 construct: expressed in transfected cells; host or cells: HEK-293 T cells, transient co-transfection with polyethylenimine
Nature of the assay: In vitro human EP4 functional antagonist activity using BRET biosensors (cAMP EPAC biosensor, TCS2510 stimulation). Type of assay: cell-based. Particulars: antagonist activity vs EC60 TCS2510, hEP4 in HEK-293 T cells. In outline: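 Antagonism measured as inhibition of EC60 TCS2510-induced cAMP BRET signal (EPAC luciferase/GFP sensor) in transiently hEP4-expressing HEK-293T cells, following 5 min compound preincubation and 10 min luminescence recording. Plates equilibrated 1 h at 22 °C in HEPES buffer; 10 concentrations over 4.5 logs, duplicate in two independent experiments, sigmoidal variable-slope IC50.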
(In BRET a luciferase serves as donor, and the signal depends on an acceptor being close.)
On to `O=C(O)c1ccc(C2(NC(=O)C3(N4CC[C@@H](Oc5cccc(F)c5)C4)CCOCC3)CC2)cc1` [Example 143, 4-[1-[[4-[(3R)-3-(3-Fluorophenoxy)pyrrolidin-1-yl]tetrahydropyran-4-carbonyl]amino]cyclopropyl]benzoic acid, hydrochloride], for which the concentration for half-maximal inhibition (IC50) – broadly, the midpoint of a concentration-inhibition curve – is less than 100 nM.
`C[C@H](NC(=O)C1(N2CC[C@@H](Oc3cccc(C(F)(F)F)c3)C2)CCOCC1)c1ccc(S(N)(=O)=O)cc1` [Example 178, N—((S)-1-(4-Sulfamoylphenyl)ethyl)-4-((R)-3-(3-(trifluoromethyl)phenoxy)pyrrolidin-1-yl)tetrahydro-2H-pyran-4-carboxamide, hydrochloride] showed an IC50 of less than 100 nM.
`C[C@H](NC(=O)C1(N2CC[C@@H](Oc3cccc(C(F)(F)F)c3)C2)CCOCC1)c1cccc(F)c1` [Example 188, N—((S)-1-(3-Fluorophenyl)ethyl)-4-((R)-3-(3-(trifluoromethyl)phenoxy)pyrrolidin-1-yl)tetrahydro-2H-pyran-4-carboxamide, hydrochloride] registered an IC50 of less than 1000 nM.
For the molecule `O=C(O)c1ccc(C2(NC(=O)C3(N(CCOc4ccccc4)CC4CC4)CCOCC3)CC2)cc1` [Example 27, 4-[1-[[4-[Cyclopropylmethyl(2-phenoxyethyl)amino]tetrahydropyran-4-carbonyl]amino]cyclopropyl]benzoic acid, hydrochloride], the concentration for half-maximal inhibition (IC50) was less than 1000 nM.
As to `CN(CCOc1ccc(OC(F)(F)F)cc1)C1(C(=O)NC2(c3ccc(C(=O)O)cc3)CC2)CCOCC1` [Example 45, 4-[1-[[4-[2-(4-Trifluoromethoxyphenoxy)ethyl-methyl-amino]tetrahydropyran-4-carbonyl]amino]cyclopropyl]benzoic acid, hydrochloride], the IC50 was less than 1000 nM.
Turning to `C[C@H](NC(=O)C1(NCCOc2ccccc2)CCC1)c1ccc(C(=O)O)cc1` [Example 69, 4-[(1S)-1-[[1-(2-Phenoxyethylamino)cyclobutanecarbonyl]amino]ethyl]benzoic acid, hydrochloride], the IC50 was less than 1000 nM.
With `C[C@H](NC(=O)C(C)(C)N1CC[C@@H](Oc2cccc(Cl)c2)C1)c1ccc(C(=O)O)cc1` [Example 161, hydrochloride], the IC50 was less than 100 nM.
With `C[C@H](NC(=O)C1(c2ccc(OCC3CCCCC3)nc2)CCOCC1)c1ccc(C(=O)O)cc1` [Example 121, 4-[(1S)-1-[[4-[6-(Cyclohexylmethoxy)-3-pyridyl]tetrahydropyran-4-carbonyl]amino]ethyl]benzoic acid] the figure was less than 1000 nM; with `C[C@H](NC(=O)C1(c2ccc(OCCC3CCCCC3)nc2)CCCC1)c1ccc(C(=O)O)cc1` [Example 130, 4-[(1S)-1-[[1-[6-(2-Cyclohexylethoxy)-3-pyridyl]cyclopentanecarbonyl]amino]ethyl]benzoic acid], less than 1000 nM.
`C[C@H](NC(=O)C1(N2CC[C@@H](Oc3cccc(C(F)(F)F)c3)C2)CCOCC1)c1ccc(C(=O)O)cc1` [Example 144, 4-[(1S)-1-[[4-[(3R)-3-[3-(Trifluoromethyl)phenoxy]pyrrolidin-1-yl]tetrahydropyran-4-carbonyl]amino]ethyl]benzoic acid, hydrochloride] gave a half-inhibitory concentration (IC50) of less than 100 nM.
Molecule `C[C@H](NC(=O)C1(N2CC[C@@H](Oc3cccc(C(F)(F)F)c3)C2)CCCC1)c1ccc(C(=O)O)cc1` [Example 164, 4-[(1S)-1-[[1-[(3R)-3-[3-Trifluoromethyl)phenoxy]pyrrolidin-1-yl]cyclopentane-1-carbonyl]amino]ethyl]benzoic acid, hydrochloride] displayed an IC50 of less than 100 nM.
As for `CN(CCOc1ccccc1)C1(C(=O)NC2(c3ccc(C(=O)O)nc3)CC2)CCOCC1` [Example 53, 5-[1-[[4-[Methyl(2-phenoxyethyl)amino]tetrahydropyran-4-carbonyl]amino]cyclopropyl]pyridine-2-carboxylic acid, hydrochloride], the 50% inhibitory concentration (IC50) is less than 1000 nM.
In turn, `C[C@H](NC(=O)C1(c2ccc(OCCC3CCCCC3)cn2)CCOCC1)c1ccc(C(=O)O)cc1` [Example 120, 4-[(1S)-1-[[4-[5-(2-Cyclohexylethoxy)-2-pyridyl]tetrahydropyran-4-carbonyl]amino]ethyl]benzoic acid] came in with an IC50 of less than 1000 nM.
The molecule `C[C@H](NC(=O)C1(N2CC[C@@H](Oc3ccccc3)C2)CCOCC1)c1ccc(C(=O)O)cc1` [Example 152, 4-[(1S)-1-[[4-((3R)-3-Phenoxypyrrolidin-1-yl)tetrahydropyran-4-carbonyl]amino]ethyl]benzoic acid, hydrochloride] came in with an IC50 of less than 100 nM.
As to `C[C@H](NC(=O)C(C)(C)N1CC[C@@H](Oc2cccc(C(F)(F)F)c2)C1)c1ccc(C(=O)O)cc1` [Example 167, hydrochloride], the IC50 was less than 100 nM.
Take `O=C(O)c1ccc(C2(NC(=O)C3(NCCOc4cccc(Cl)c4)CCOCC3)CC2)cc1` [Example 28, 4-[1-[[4-[2-(3-Chlorophenoxy)ethylamino]tetrahydropyran-4-carbonyl]amino]cyclopropyl]benzoic acid, hydrochloride]: the half-maximal inhibitory concentration (IC50) is less than 100 nM.
On to `C[C@H](NC(=O)C1(NCc2cccc(F)c2)CCOCC1)c1ccc(C(=O)O)cc1` [Example 20, 4-[(1S)-1-[[4-[(3-Fluorophenyl)methylamino]tetrahydropyran-4-carbonyl]amino]ethyl]benzoic acid, hydrochloride], for which the IC50 was less than 1000 nM.
For the molecule `CN(CCOc1ccccc1)C1(C(=O)NC2(c3ccc(C(=O)O)cc3F)CC2)CCOCC1` [Example 50, 3-Fluoro-4-[1-[[4-[methyl(2-phenoxyethyl)amino]tetrahydropyran-4-carbonyl]amino]cyclopropyl]benzoic acid, hydrochloride], the concentration for half-maximal inhibition (IC50) is less than 100 nM.
Turning to `C[C@H](NC(=O)C1(NCCOc2ccccc2)CCCCC1)c1ccc(C(=O)O)cc1` [Example 55, 4-[(1S)-1-[[1-(2-Phenoxyethylamino)cyclohexanecarbonyl]amino]ethyl]benzoic acid, hydrochloride], the IC50 was less than 1000 nM.
Take `C[C@H](NC(=O)C1(c2ccc(OCc3ccccc3)cc2)CCCC1)c1ccc(C(=O)O)cc1` [Example 109, 4-[(1S)-1-[[1-(4-Benzyloxyphenyl)cyclopentanecarbonyl]amino]ethyl]benzoic acid]: the half-inhibitory concentration (IC50) was less than 100 nM.
Consider `O=C(O)c1ccc(C2(NC(=O)C3(N4CC[C@@H](Oc5cccc(C(F)(F)F)c5)C4)CCOCC3)CC2)cc1` [Example 145, 4-[1-[[4-[(3R)-3-[3-(Trifluoromethyl)phenoxy]pyrrolidin-1-yl]tetrahydropyran-4-carbonyl]amino]cyclopropyl]benzoic acid, hydrochloride], for which the 50% inhibitory concentration (IC50) is less than 100 nM.
On to `CC(C)(C(=O)NC[C@H]1CC[C@H](C(=O)O)CC1)N1CC[C@@H](Oc2cccc(C(F)(F)F)c2)C1` [Example 201, (1R,4R)-4-((2-Methyl-2-((R)-3-(3-(trifluoromethyl)phenoxy)pyrrolidin-1-yl)propanamido)methyl)cyclohexane-1-carboxylic acid, hydrochloride], for which the IC50 was less than 100 nM.
`CCCC(C)COc1ccc(C2(C(=O)N[C@@H](C)c3ccc(C(=O)O)cc3)CCOCC2)cc1` (stereo partly drawn) [Example 84, 4-[(1S)-1-[[4-[4-(2-Methylpentoxy)phenyl]tetrahydropyran-4-carbonyl]amino]ethyl]benzoic acid] came in with an IC50 of less than 1000 nM.
Consider `Cc1ccccc1OCCN(C)C1(C(=O)NC2(c3ccc(C(=O)O)cc3)CC2)CCOCC1` [Example 36, 4-[1-[[4-[2-(2-Methylphenoxy)ethyl-methyl-amino]tetrahydropyran-4-carbonyl]amino]cyclopropyl]benzoic acid, hydrochloride], for which the IC50 was less than 100 nM.
With `C[C@H](NC(=O)C1(N2CC[C@@H](Oc3cccc(Cl)c3)C2)CCOCC1)c1ccc(C(=O)O)cc1` [Example 140, 4-[(1S)-1-[[4-[(3R)-3-(3-Chlorophenoxy)pyrrolidin-1-yl]tetrahydropyran-4-carbonyl]amino]ethyl]benzoic acid, hydrochloride], the half-inhibitory concentration (IC50) is less than 100 nM.
The molecule `C[C@H](NC(=O)C1(c2cccc(OCC3CCCCC3)n2)CCOCC1)c1ccc(C(=O)O)cc1` [Example 115, 4-[(1S)-1-[[4-[6-(Cyclohexylmethoxy)-2-pyridyl]tetrahydropyran-4-carbonyl]amino]ethyl]benzoic acid] returned an IC50 of less than 1000 nM.
Turning to `C[C@H](NC(=O)C1(N2CC[C@@H](Oc3cccc(C(F)(F)F)c3)C2)CCOCC1)c1ccccc1` [Example 183, N—((S)-1-Phenylethyl)-4-((R)-3-(3-(trifluoromethyl)phenoxy)pyrrolidin-1-yl)tetrahydro-2H-pyran-4-carboxamide, hydrochloride], the IC50 was less than 1000 nM.
Turning to `CN(CCOc1ccccc1)C1(C(=O)NC2(c3ccc(C(=O)O)c(Cl)c3)CC2)CCOCC1` [Example 51, 2-Chloro-4-[1-[[4-[methyl(2-phenoxyethyl)amino]tetrahydropyran-4-carbonyl]amino]cyclopropyl]benzoic acid, hydrochloride], the half-inhibitory concentration (IC50) was less than 1000 nM.
In turn, `CN(CCOc1ccccc1F)C1(C(=O)NC2(c3ccc(C(=O)O)cc3)CC2)CCOCC1` [Example 33, 4-[1-[[4-[2-(2-Fluorophenoxy)ethyl-methyl-amino]tetrahydropyran-4-carbonyl]amino]cyclopropyl]benzoic acid, hydrochloride] yielded an IC50 of less than 100 nM.
Molecule `C[C@H](NC(=O)C1(N(C)CCOc2cccc(Cl)c2)CCOCC1)c1ccc(C(=O)O)cc1` [Example 9, 4-[(1S)-1-[[4-[2-(3-Chlorophenoxy)ethyl-methyl-amino]tetrahydropyran-4-carbonyl]amino]ethyl]benzoic acid, hydrochloride] displayed an IC50 of less than 100 nM.
Regarding `C[C@H](NC(=O)C1(N2CC[C@@H](Oc3cccc(OC(F)(F)F)c3)C2)CCOCC1)c1ccc(C(=O)O)cc1` [Example 146, 4-[(1S)-1-[[4-[(3R)-3-[3-(Trifluoromethoxy)phenoxy]pyrrolidin-1-yl]tetrahydropyran-4-carbonyl]amino]ethyl]benzoic acid, hydrochloride], the IC50 was less than 100 nM.

Source of the values: US12527779B2, “Prostaglandin E2 (PGE2) EP4 receptor antagonists” (Domain Therapeutics, priority 2019, dated 2026).
